Assay results published in US20220220106A1, “QUINOLINE COMPOUNDS AND PHARMACEUTICAL COMPOSITIONS AND USES THEREOF” (Academy of Military Medical Sciences, priority 2019, published 2022).

Experiments:
[1] = system: Enterovirus 71 (EV71) H strain; assay: In vitro anti-EV71 activity (antiviral activity in RD cells, CellTiter-Glo); type: cell-based; settings: for IC50: Enterovirus A, 96 h, EV71 H strain, RD cells, 4 days, CellTiter-Glo, read-out: IC50; for in vitro anti-EV71 activity, in words: EV71, RD cells
Experimental: According to the mass and molecular weight of the compound to be tested, the compound to be tested was dissolved to 100 mM (mmol/L) with DMSO.
Detection of Antiviral Activity:
(1) First, the compound to be tested was diluted to 800 μM with cell maintenance solution (DMEM+2% FBS, Gibco, catalog numbers: 11995-065, 1600-044), and three-fold gradient dilution was performed to prepare 10 concentrations in total. The diluted compound was added to a 96-well plate with white wall and transparent bottom, 50 μl per well. To both the cell control group and the virus control group, an equal volume of the cell maintenance solution was added.
(2) EV71 virus (purchased from ATCC) was taken out from the −80° C. refrigerator and equilibrated to room temperature.
(3) The virus seed was diluted with a virus growth solution (DMEM+2% FBS, Gibco, catalog numbers: 11995-065, 1600-044) to 100TCID50, the diluted virus seed was added to the 96-well plate of (1), with […] per well. The same volume of the virus growth solution was added to the cell control group.
(4) RD cells (purchased from ATCC) were inoculated at a concentration of 1*10^5/mL into the 96-well plate of (1), with 100 μL per well, to reach a final volume of 200 μL per well. The final concentration of drug was 0.25 times the initial concentration.
(5) RD cells were cultured at 37° C. for 4 days for testing.
(6) The Buffer of CellTiter-Glo® luminescent cell viability assay reagent (Promega) was mixed with the substrate in the dark to prepare a working solution.
(§1) (7) The culture medium in the plate was discarded, the plate was dried by patting, 100 μL of the detection reagent was added to each well, and the 96-well plate was shaken on an orbital shaker for 4 minutes to induce cell lysis. After keeping in the dark and subjecting to signal stabilization for 15 minutes, the chemiluminescence unit was detected by using MD5 microplate reader (Molecular Devices), and the plate reading program was performed according to the CellTiter-Glo preset program.
The inhibition rate-concentration curve was fitted to S-curve by using origin8.0 software to calculate the IC50 value of the compound to be tested.
(§2) The formula for calculating the inhibition rates of drug at different dilution degrees was as follows: inhibition rate (%)=(average value of cell control group−value of experimental group)/(average value of cell control group−minimum value of experimental group)*100
(§3) The inhibition rate-concentration curve was fitted to S-curve by using origin8.0 software, and the IC50 value of the compound to be tested was calculated. The same method was used to calculate the TD50 value, and the selection index SI=TD50/IC50 was calculated according to the half maximal inhibitory concentration IC50 and the median toxic dose TD50.

RD cells = assay: Detection of cytotoxicity in RD cells (CellTiter-Glo); type: cell-based; settings: 4 days, CellTiter-Glo, median toxic dose
Experimental: Detection of Cytotoxicity:
(1) The compound to be tested was diluted to a concentration of 400 μM with the cell maintenance solution, and 3-fold gradient dilution was carried out to obtain 10 concentrations in total.
(2) The diluted compound was added to a 96-well plate with white wall and transparent bottom, with 100 μL per well. An equal volume of the cell maintenance solution was added to the cell control group.
(3) RD cells were inoculated into the above 96-well plate at a concentration of 1*10^5/mL, with 100 μL per well, to reach a final volume of 200 μL per well, and the final concentration of drug was 0.5 times the pretreatment concentration.
(4) The RD cells were cultured at 37° C. for 4 days for testing.
(5) The Buffer of CellTiter-Glo® luminescent cell viability assay reagent was mixed with the substrate in the dark to prepare a working solution.
as §1, with “(6)” for “(7)”, “detected,” for “detected by using MD5 microplate reader (Molecular Devices),”
as §2, §3

IC50 [1] [µM]	melting point [°C]	Structure (SMILES)	TD50 (RD cells) [µM]	in vitro anti-EV71 activity, in words [1]
> 200	212 to 213	O=c1ccc2cnc3ccc(Nc4ccc(Cl)cc4)cc3c2n1-c1cccc(C(F)(F)F)c1 [HTL-6-25, 9-(4-chlorophenyl)imino-2-oxo-1-[3-(trifluoromethyl)phenyl]-1,2-dihydrobenzo[h][1,6]naphthyridine]	4.56 ± 0.26	
> 200	210 to 211	Cc1cc(Nc2ccc3ncc4ccc(=O)n(-c5cccc(C(F)(F)F)c5)c4c3c2)ccc1F [HTL-6-24, 9-[(4-fluoro-3-methyl)phenyl]imino-2-oxo-1-[3-(trifluoromethyl)phenyl]-1,2-dihydrobenzo[h][1,6]naphthyridine]	7.2 ± 0.33	
3.7 ± 0.03	192 to 194	Nc1cncc(Nc2ccc3ncc4ccc(=O)n(-c5cccc(C(F)(F)F)c5)c4c3c2)n1 [HTL-6-28, 9-[2-(6-aminopyrazinyl)]imino-2-oxo-1-[3-(trifluoromethyl)phenyl]-1,2-dihydrobenzo[h][1,6]naphthyridine]	8.67 ± 0.97	moderate activity
1.78 ± 0.03	172 to 175	CC(=O)/C=C/c1cnc2ccc(-c3ccc(N)nc3)cc2c1Nc1cccc(C(F)(F)F)c1 [HTL-2-34, (E)-6-[3-(6-amino)pyridyl]-4-[3-(trifluoromethyl)phenyl]aminoquinoline-3-butenone]	4.99 ± 1.55	moderate anti-EV71 activity
> 200	265 to 266	O=c1oc2cnc3ccc(-c4ccc(C(F)(F)F)cc4)cc3c2n1-c1cccc(C(F)(F)F)c1 [HTL-5-29, 8-(4-trifluoromethyl)phenyl-1-[3-(trifluoromethyl)phenyl]oxazolo[5,4-c]quinolin-2(1H)-one]	>200	
> 200	227 to 229	CC(=O)/C=C/c1cnc2ccc(-c3cncc(C#N)c3)cc2c1Nc1cccc(C(F)(F)F)c1 [HTL-3-46, (E)-6-[3-(5-cyano)pyridyl]-4-[3-(trifluoromethyl)phenyl]aminoquinoline-3-butenone]	3.59 ± 2.46	
> 200	210 to 213	CC(=O)/C=C/c1cnc2ccc(-c3ccc(F)c(F)c3)cc2c1Nc1cccc(C(F)(F)F)c1 [HTL-3-34, (E)-6-(3,4-difluoro)phenyl-4-[3-(trifluoromethyl)phenyl]aminoquinoline-3-butenone]	3.02 ± 0.91	
> 200	197 to 199	CC(=O)/C=C/c1cnc2ccc(-c3ccc(Cl)cc3)cc2c1Nc1cccc(C(F)(F)F)c1 [HTL-3-37, (E)-6-(4-chloro)phenyl-4-[3-(trifluoromethyl)phenyl]aminoquinoline-3-butenone]	1.88 ± 0.46	
> 200	242 to 244	O=c1oc2cnc3ccc(-c4cnc5ccccc5c4)cc3c2n1-c1cccc(C(F)(F)F)c1 [HTL-5-32, 8-(3-quinolyl)-1-[3-(trifluoromethyl)phenyl]oxazolo[5,4-c]quinolin-2(1H)-one]	68.88 ± 0.13	
> 200	234 to 236	Cc1ccc(Nc2ccc3ncc4ccc(=O)n(-c5cccc(C(F)(F)F)c5)c4c3c2)cn1 [HTL-6-19, 9-[3-(6-methylpyridyl)]imino-2-oxo-1-[3-(trifluoromethyl)phenyl]-1,2-dihydrobenzo[h][1,6]naphthyridine]	22.62 ± 2.15	
> 200	149 to 150	CCCCc1ccc(-c2ccc3ncc(/C=C/C(C)=O)c(Nc4cccc(C(F)(F)F)c4)c3c2)cc1 [HTL-3-42, (E)-6-(4-butyl)phenyl-4-[3-(trifluoromethyl)phenyl]aminoquinoline-3-butenone]	0.96 ± 0.15	
> 200	257 to 258	COc1cncc(-c2ccc3ncc4oc(=O)n(-c5cccc(C(F)(F)F)c5)c4c3c2)c1 [HTL-5-30, 8-[3-(5-methoxy)pyridyl]-1-[3-(trifluoromethyl)phenyl]oxazolo[5,4-c]quinolin-2(1H)-one]	68.52 ± 0.42	
> 200	138 to 140	COc1ccc(Nc2ccc3ncc4ccc(=O)n(-c5cccc(C(F)(F)F)c5)c4c3c2)cc1 [HTL-6-26, 9-(4-methoxyphenyl)imino-2-oxo-1-[3-(trifluoromethyl)phenyl]-1,2-dihydrobenzo[h][1,6]naphthyridine]	>200	
> 200	272 to 274	O=c1oc2cnc3ccc(-c4cccs4)cc3c2n1-c1cccc(C(F)(F)F)c1 [HTL-5-26, 8-(2-thienyl)-1-[3-(trifluoromethyl)phenyl]oxazolo[5,4-c]quinolin-2(1H)-one]	>200	
> 200	181 to 185	CC(=O)/C=C/c1cnc2ccc(-c3cccs3)cc2c1Nc1cccc(C(F)(F)F)c1 [HTL-3-24, (E)-6-(2-thienyl)-4-[3-(trifluoromethyl)phenyl]aminoquinoline-3-butenone]	1.35 ± 1.16	
> 200	143 to 144	CC(=O)/C=C/c1cnc2ccc(-c3ccc(C(C)C)cc3)cc2c1Nc1cccc(C(F)(F)F)c1 [HTL-3-39, (E)-6-(4-isopropyl)phenyl-4-[3-(trifluoromethyl)phenyl]aminoquinoline-3-butenone]	1.75 ± 0.73	
> 200	166 to 169	CCCc1ccc(-c2ccc3ncc(/C=C/C(C)=O)c(Nc4cccc(C(F)(F)F)c4)c3c2)cc1 [HTL-3-40, (E)-6-(4-propyl)phenyl-4-[3-(trifluoromethyl)phenyl]aminoquinoline-3-butenone]	0.83 ± 0.03	
> 200	182 to 183	CC(=O)/C=C/c1cnc2ccc(-c3cccc(Cl)c3)cc2c1Nc1cccc(C(F)(F)F)c1 [HTL-3-36, (E)-6-(3-chloro)phenyl-4-[3-(trifluoromethyl)phenyl]aminoquinoline-3-butenone]	4.65 ± 3.50	
> 200	259 to 260	N#Cc1ccc(Nc2ccc3ncc4ccc(=O)n(-c5cccc(C(F)(F)F)c5)c4c3c2)cc1 [HTL-6-22, 9-(4-cyanophenyl)imino-2-oxo-1-[3-(trifluoromethyl)phenyl]-1,2-dihydrobenzo[h][1,6]naphthyridine]	6.95 ± 0.86	
7.14 ± 3.21	175 to 177	CC(=O)Nc1ccc(Nc2ccc3ncc4ccc(=O)n(-c5cccc(C(F)(F)F)c5)c4c3c2)cc1 [HTL-6-27, 9-(4-acetylaminophenyl)imino-2-oxo-1-[3-(trifluoromethyl)phenyl]-1,2-dihydrobenzo[h][1,6]naphthyridine]	10.65 ± 0.57	moderate activity
> 200	243 to 245	COC(=O)/C=C/c1ccc2ncc3oc(=O)n(-c4cccc(C(F)(F)F)c4)c3c2c1 [HTL-6-33, (E)-8-(2-methoxycarbonyl-vinyl)-1-[3-(trifluoromethyl)phenyl]oxazolo[5,4-c]quinolin-2(1H)-one]	71.99 ± 0.78	
